# Tests used:
# rats [1] = assay: Respiratory depression by blood gas (pCO2) monitoring in rats; format: in vivo; settings: rat; for Respiratory Depression % Units Baseline pCO2: 0.30 mg/kg i.v.
# Description: (§1) Analgesia was assayed in rats using the tail pinch test with simultaneous monitoring of capillary blood gases (pCO2). During this testing period respiratory depression values were also obtained. Male rats (Wistar Hannover 200-300 g) were anesthetized with 2% isoflurane (J. A. Webster, Inc., Sterling, Mass. The femoral artery was cannulated with PE50 tubing for blood sampling. The external jugular vein was also cannulated with Silastic tubing for drug injection. After surgery, anesthetic gases were removed and the rat was allowed to rest in a plastic restrainer for 60 minutes to establish baseline values of blood gases.
# (§2) The compounds 1-6 were administered intravenous. Nociceptive response and respiratory values were obtained for a 1-2 hour period. The femoral artery cannulation was used to draw arterial blood into a syringe pre-wetted with heparin. Samples were then analyzed with a blood gas analyzer (Ph/Gas Analyzer Synthesis 25 Model, Instrumentation Laboratory) to assess respiratory depression effects. The volume of blood taken each time was 0.15 cc. The syringes were capped immediately and the blood gases analyzed within 5 minutes. The blood exposed to air at the tip of the syringe was expelled. The blood was mixed by gentle inversion and an aliquots of 0.10 cc was injected into the blood gas analyzer.
# (§3) The gas analyzer was well maintained and operated. Calibrations (low, normal and high) were done at the beginning of every day of testing. The sample lines, co-oximeter and the blood gas electrode were cleaned regularly at the end of every day of testing. Hematocrit calibration (high and low) was scheduled on a weekly basis and tubing, sample and pinch valve were replaced on a monthly basis.
# (§4) The ED50 values for analgesia potency and respiratory depression were determined to calculate the safety or therapeutic ratio, which is defined as the respiratory depression ED50 divided by analgesia ED50.
# [2] = as above; format: in vivo; settings: male, Wistar Hannover, in vivo; rat, intravenous
# Description: as §1, §2, §3, §4
# [3] = target: T1, Mu receptor, mouse vas deferens (Mus musculus, UniProt P42866); assay: Mouse vas deferens, inhibition of electrically induced contractions, mu (with TIPP and nor-BNI); format: cell-based; settings: in presence of 3 μM TIPP and 15 nM nor-BNI; read-out: Mouse Vas Deferens ED50 (nM) μ
# T1 construct: Mouse vasa deferentia (MVD), CD-1 strain, Harlan, Raleigh, N.C.) were removed from mice; tissue Harlan, Raleigh, N.C; (animals); host or cells: mouse vas deferens, CD-1 strain
# κ opioid receptor = target: T2, κ opioid receptor (Cavia porcellus, UniProt P41144); assay: Radioligand binding, [3H]U69593 competition, guinea pig cerebellum membranes; settings: read-out: Guinea Pig Brain Membrane K1 (nM) κ
# T2 construct: tissue Pel-Freeze Biological Inc. (Rogers, Ark.); host or cells: guinea pig cerebellum membranes
# Description: (§5) Two stereoisomerically related racemic mixtures and inclusive enantiomers were evaluated for in vitro opioid receptor affinity in rat brain membranes (μ and δ opioid) and guinea pig cerebellum (κ opioid receptor). Membranes for radioligand binding were prepared from either rat whole brain or guinea pig cerebellum, supplied by Pel-Freeze Biological Inc. (Rogers, Ark.). Tissues were homogenized in 50 mM TRIS (Tris[hydrooxymethyl]aminomethane) buffer (pH 7.4) containing 50 ug/ml soybean trypsin inhibitor, 1 mM EDTA (Ethylenediaminetetraacetic acid), and 100 μM PMSF (Phenylmethylsulfonyl fluoride). The homogenized brain tissues were centrifuged at 500×g for 30 minutes (4° C.) to remove large debris. The supernatant was polytronically sonicated for 10 seconds (P.E. setting of 2, 4° C.). Sucrose solution was then added to a final concentration of 0.35 M using a 10 mM TRIS-Sucrose buffer (pH 7.4) and the brain membranes were then centrifuged at 40,000×g for 30 minutes (4° C.). The membrane pellets were then washed twice in 10 mM TRIS buffer (pH 7.4) containing 50 μg/ml soybean trypsin inhibitor, 1 mM EDTA, and 100 μM PMSF.
# (§6) Radioligand binding assays were performed in 10 mM TRIS buffer (pH 7.4) containing 50 μg/ml soybean trypsin inhibitor, 1 mM EDTA, 5 mM MgCl2, and 100 μM PMSF. Tritium-labeled DAMGO (μ), Deltorphin II (δ), or U69593 (κ) purchased from New England Nuclear were used as ligands in competitive experiments (2-3×10^−10 M final concentrations) with non-specific binding defined by 0.5×10^−6 M Naloxone (purchased from SIGMA Chemical Co.). All binding assays were run at room temperature for 90 minutes and then terminated by rapid filtration on GF/C glass fiber filters (Whatman, Hillsboro, Oreg.) with 50 mM TRIS buffer (4° C., pH 7.4) employing a Brandel Semi-automatic Cell Harvester (Model M48, Brandel, Gaithersburg, Md.). The filters were washed twice with 50 mM TRIS buffer (4° C., pH 7.4) and the filters were placed in liquid scintillation cocktail and the bound radioactivity counted on a Beckman LS 6500 scintillation counter. The potency of the compounds in inhibiting the binding of radiolabelled DAMGO (μ), Deltorphin II (δ), or U69593 (κ) was determined from full concentration-effect curves. With the computer program Prism (GraphPad Software Inc., San Diego, Calif.) the IC50 values were determined using a one-site nonlinear regression analysis of the radioligand binding data. The IC50 values were then converted to Ki values using the Cheng-Prusoff equation. (Cheng Y and Prusoff W H (1973) Relationship between the inhibition constant (K1) and the concentration of inhibitor which causes 50 percent inhibition (I50) of a enzymatic reaction. Biochem Pharm 22:3099-3108.)
# rats [4] = assay: Tail pinch test for analgesia in rats; format: in vivo; settings: rat; for Analgesia (delay of response to tail pinch): 0.30 mg/kg i.v., cutoff 20 sec
# Description: as §1, §2
# An artery clamp was placed on the tail (one inch from the tip of the tail) for a short duration until an escape response occurred (i.e. tail-flick or vocalization). The escape response latency was recorded by means of a stopwatch. A cutoff time of 20 sec. was used to prevent unnecessary tissue damage. […] The elapsed time to elicit a pain response was recorded as the tail pinch latency in seconds. Blood gases were monitored at approximately the same time points as the tail pinch test.
# as §4
# δ opioid receptor = target: T3, δ opioid receptor (Rattus norvegicus, UniProt P33533); assay: Radioligand binding, [3H]Deltorphin II competition, rat brain membranes; settings: read-out: Rat Brain Membrane K1 (nM) δ
# T3 construct: tissue Pel-Freeze Biological Inc. (Rogers, Ark.); host or cells: rat whole brain membranes
# Description: as §5, §6
structure (smiles),measurement,setting,value
"C=CCN1C[C@H](C)N([C@H](c2ccsc2)c2cccc(O)c2)C[C@H]1C [Compound 2, (−)3-((S)-((2S,5R)-4-allyl-2,5-dimethyl-1-piperazinyl)(3-thienyl)methyl)phenol]",Respiratory Depression % Units Baseline pCO2,rats [1]; 4 min.,48%
same,Respiratory Depression % Units Baseline pCO2,rats [1]; 8 min.,34%
same,Respiratory Depression % Units Baseline pCO2,rats [1]; 32 min.,17%
same,Mortality due to respiratory depression,rats [1]; i.v.,without lethal respiratory depression
same,Safety Ratio (respiratory depression ED50 divided by analgesia ED50),rats [1]; intravenous,15.7
same,"Safety ratio, times greater than any of the other enantiomeric compounds tested",rats [1]; intravenous,at least six times greater
same,"Safety ratio, times greater than either of the racemic mixtures",rats [1]; intravenous,≥ 3 times
same,ED50,[2],0.72 mg/kg
same,EC50,[3],38.8 nM
same,Ki,κ opioid receptor,1.77 nM
same,Analgesia (delay of response to tail pinch),rats [4]; 4 min.,20 s
same,Analgesia (delay of response to tail pinch),rats [4]; 8 min.,20 s
same,Analgesia (delay of response to tail pinch),rats [4]; 32 min.,12.3 s
same,Analgesic effect in words,"rats [4]; i.v., tail pinch, FIGS. 1-6",safely maintains analgesia for an extended time
same,ED50,"rats [4]; intravenous, tail pinch, 20 sec cutoff",0.046 mg/kg
same,Ki,δ opioid receptor,0.88 nM
